Measurements reported in patent US9574188B2, “DNA restriction library tagging and analysis” (Harborgen Biotech LLC, priority 2014, dated 2017).

Test system: RKO cell line
Test: Effect of methylation inhibitor on global methylation percentage (restriction library qPCR)
Type: cell-based
Method: The following steps are performed to create (including amplify) the restriction library, and measure methylation level: • 1. Add equal amount of a genomic DNA into two tubes containing the Msp I restriction library making system or Hpa II restriction library making system. • 2. Incubate the two tubes in PCR instrument. Repeat the following thermal cycle 100 times: 22 degree Celsius for 2 minutes, 16 degree 2 minutes, and 4 degree 2 minutes.
• Hpa II, Msp I and Cla I have more than 75% activity left at 22 degree. The generated restriction fragments and adaptors have the compatible CG-5′ overhang that contain phosphate at 5′ ends. At 4 degree Celsius, the compatible overhangs anneal together then T4 DNA ligases join the two annealed ends. • 3. […] Consequently the hetero-ligation is no longer recognizable by Cla I, Msp I or Hpa II. • 4. […] The proportion of hetero-ligation products becomes higher and higher, while the proportion of self-ligation products becomes lower and lower accompanied with repeating the cycle digestion-ligation reaction. • 6. All restriction sites in the Msp I restriction library making system disappear after hetero-ligation between restriction fragments and the adapters at reaction end, but not the methylated restriction sites (CCGG) in Hpa II restriction library making system. • 7. […]

## Nc1ncn([C@H]2C[C@H](O)[C@@H](CO)O2)c(=O)n1 [DAC, 5-aza-2′ deoxycytidine]
5 μM for 3 days prior to harvest, decreased from 96.7% (before treatment)
  methylation percentage of RKO cells after methylation inhibitor treatment: 35.6%
FIG. 9 legend
  effect on the methylation level of RKO cell line: significantly affected
